In patent publication US8063043B2, “Salts of N-[6-cis-2,6-dimethylmorpholin-4-yl)pyridine-3-yl]-2-methyl-4′-(trifluoromethoxy)[1,1′-biphenyl]-3-carboxamide” (Novartis AG, priority 2008, dated 2011):

Tests used:
[1] = Stability measured by degradation products (DP, HPLC area-%); type: physicochemical
Method: DPs are analyzed by HPLC (method see Table 3). They are calculated as area-% products. Compositions of the mixtures in mass % are as follows.
For salts in water, acetonitrile was added to dilute the 0.2% slurry to 0.1% clear solution. For salts in methanol, acetonitrile or acetonitrile/water (50:50, v/v), the corresponding solvent or solvent mixture was added to dilute the 0.2% slurry to 0.1% clear solution. For salts in 0.5% CMC, HPMC cellulose 4000 0.5%, or Tween 80, 0.8%, tetrahydrofuran and water were added to dilute the 2% slurry to 0.1% clear solution and to reach tetrahydrofuran/water 50:50 (v/v). For bulk stability samples (including the samples in excipient mixtures), acetonitrile/water (80:20, v/v) was added to make 0.1% clear solution.

[2] = Stability: appearance color (CL); type: physicochemical
[3] = Solid form after stress test (XRPD/DSC); type: physicochemical
[4] = Bulk corrosivity with stainless steel coupon; type: physicochemical; conditions: 2 day 80% r.h. with stainless steel coupon; change in the surface of the coupon
[5] = pH of 1% solution or suspension; type: physicochemical; conditions: In water
Method: The solutions were stirred continuously as the pH was measured.

[6] = Thermogravimetry (weight loss / loss on drying); type: physicochemical; conditions: at 150° C.
[7] = Hygroscopicity, DVS sorption/desorption isotherms; type: physicochemical; conditions: for DVS Desorp. Weight % chg. / DVS Sorp. Weight % chg.: 25° C.
Method: Sorption/desorption isotherms: Instrument, Surface Measurement System DVS-1 temperature at 25±0.5° C.

[8] = Crystal modification after 72 hours vibration (polymorphism behavior of slurries); type: physicochemical
Source text: The slurries were filtered and the solids collected for XRPD analyses.

[9] = pH 6.8
physchem = conditions: 25 °C, thermodynamic from solid, Solubility (approx. at 25° C., mg/ml)

Structure (SMILES): Cc1c(C(=O)Nc2ccc(N3C[C@@H](C)O[C@@H](C)C3)nc2)cccc1-c1ccc(OC(F)(F)F)cc1.Cl [Hydrochloride, mono]
- DP [%] ([1]; 0.2% solutions or suspensions, 2 week 50° C., Acetonitrile): 0.38%
- DP [%] ([1]; 0.2% solutions or suspensions, 2 week 50° C., Acetonitrile/Water (50:50)): 1.72%
- DP [%] ([1]; 0.2% solutions or suspensions, 2 week 50° C., Methanol): 2.06%
- DP [%] ([1]; 0.2% solutions or suspensions, 2 week 50° C., Water): 0.31%
- DP [%] ([1]; 2% (or 5%) solutions or suspensions, 1 day room temperature, 0.5% CMC): 0.33%
- DP [%] ([1]; 2% (or 5%) solutions or suspensions, 1 day room temperature, HPMC Cellulose 4000 0.5%): 0.32%
- DP [%] ([1]; 2% (or 5%) solutions or suspensions, 1 day room temperature, Tween 80, 0.8%): 0.31%
- DP [%] ([1]; 2 weeks 50° C., tight container, 1% in mixture 1 (Lactose/maize starch/Aerosil/Magnesiumstearate)): 0.27%
- DP [%] ([1]; 2 weeks 50° C., tight container, 1% in mixture 2 (Mannitol/Avicel PH 102/Cutina HR)): 0.39%
- DP [%] ([1]; 2 weeks 50° C./75% r.h., 1% in mixture 1): 2.85%
- DP [%] ([1]; 2 weeks 50° C./75% r.h., 1% in mixture 2): 0.31%
- DP [%] ([1]; Solid state, 2 week 50° C., tight container, Bulk (HPLC)): 0.31%
- DP [%] ([1]; Solid state, 2 week 50° C./75% r.h., Bulk (HPLC)): 0.29%
- DP [%] ([1]; Solid state, 2 week 80° C., tight container, Bulk (HPLC)): 0.35%
- DP [%] ([1]; Solid state, 2 week 80° C./75% r.h., Bulk (HPLC)): 0.35%
- DP [%] ([1]; Unstressed drug substance, bulk): 0.30%
- DP [%] ([1]; Xenon light (approx. 1200 kLuxh), Bulk (HPLC)): 1.46%
- CL ([2]; 0.2% solutions or suspensions, 2 week 50° C., Acetonitrile/Water (50:50), clear solution after stress test (*)): A *
- CL ([2]; 0.2% solutions or suspensions, 2 week 50° C., Acetonitrile, clear solution after stress test (*)): A *
- CL ([2]; 0.2% solutions or suspensions, 2 week 50° C., Methanol, clear solution after stress test (*)): A *
- CL ([2]; 0.2% solutions or suspensions, 2 week 50° C., Water, suspension (↓)): A ↓
- CL ([2]; 2% (or 5%) solutions or suspensions, 1 day room temperature, 0.5% CMC, suspension (↓)): A ↓
- CL ([2]; 2% (or 5%) solutions or suspensions, 1 day room temperature, HPMC Cellulose 4000 0.5%, suspension (↓)): A ↓
- CL ([2]; 2% (or 5%) solutions or suspensions, 1 day room temperature, Tween 80, 0.8%, suspension (↓)): A ↓
- Bulk (XRPD): change ([3]; Solid state, 2 week 50° C., tight container): No
- Bulk (XRPD): change ([3]; Solid state, 2 week 50° C./75% r.h., footnote: new peak in the XRPD pattern compared with unstressed diphosphate): No
- Bulk (DSC): change ([3]; Solid state, 2 week 80° C., tight container): No
- Bulk (XRPD): change ([3]; Solid state, 2 week 80° C./75% r.h., footnote: pattern similar to that of phosphate, with one extra peak): No
- Bulk (XRPD): change ([3]; Xenon light (approx. 1200 kLuxh)): No
- Bulk corrosivity [4]: No visible change
- pH of 1% solution or suspension [5]: 1.69
- Thermogravimetry (weight loss in %) ([6]; Heating rate 10° C./min): 0.48% at 150 °C
- Loss on drying by TGA (%) ([6]; Hygroscopicity, as is): 0.48 at 150 °C %
- XRPD after DVS test [7]: No change
- DVS Desorp. Weight % chg. ([7]; RH 0.0%): −0.0114%
- DVS Sorp. Weight % chg. ([7]; RH 0.0%): −0.0001%
- DVS Desorp. Weight % chg. ([7]; RH 25.0%): 0.3799%
- DVS Sorp. Weight % chg. ([7]; RH 25.0%): 0.3334%
- DVS Desorp. Weight % chg. ([7]; RH 50.0%): 0.4932%
- DVS Sorp. Weight % chg. ([7]; RH 50.0%): 0.4660%
- DVS Desorp. Weight % chg. ([7]; RH 75.0%): 0.6069%
- DVS Sorp. Weight % chg. ([7]; RH 75.0%): 0.5753%
- DVS Desorp. Weight % chg. ([7]; RH 85.0%): 0.6817%
- DVS Sorp. Weight % chg. ([7]; RH 85.0%): 0.6525%
- DVS Desorp. Weight % chg. ([7]; RH 95.0%): 0.8784%
- DVS Sorp. Weight % chg. ([7]; RH 95.0%): 0.8784%
- Crystal modification after 72 hours vibration (DSC/XRPD/TG) ([8]; 0.1N HCl solution): XRPD pattern
- Crystal modification after 72 hours vibration (DSC/XRPD/TG) ([8]; Acetone, N—no, Y—yes): N, no form change
- Crystal modification after 72 hours vibration (DSC/XRPD/TG) ([8]; Acetonitrile, N—no, Y—yes): N, no form change
- Crystal modification after 72 hours vibration (DSC/XRPD/TG) ([8]; Ethanol, N—no, Y—yes): N, no form change
- Crystal modification after 72 hours vibration (DSC/XRPD/TG) ([8]; Ethyl acetate, N—no, Y—yes): N, no form change
- Crystal modification after 72 hours vibration (DSC/XRPD/TG) ([8]; Iso Propanol, N—no, Y—yes): N, no form change
- Crystal modification after 72 hours vibration (DSC/XRPD/TG) ([8]; Water): Dissociated to free
- Final pH of slurry ([8]; Water): Final pH 1.94
- Crystal modification after 72 hours vibration (DSC/XRPD/TG) ([8]; pH 3 buffer): Dissociated to free
- Final pH of slurry ([8]; pH 3 buffer): Final pH 2.89
- Crystal modification after 72 hours vibration (DSC/XRPD/TG) ([8]; pH 6.8 buffer): No form change
- Final pH of slurry ([8]; pH 6.8 buffer): Final pH 5.93
- Solubility (approx. at 25° C., mg/ml) ([9]; 1 day): 0.000 (Final mg/ml
- Final pH of solubility sample [9]: pH 5.93)
- solubility at 1 day (physchem; pH 1, simulated gastric fluid): 2 µg/mL
- solubility at 1 day (physchem; water): 5 µg/mL
